From PubChem BioAssay (NCI)
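Cultured in 96-well plates, cells were exposed to test compound for 48 hours across five concentrations. At the TGI there is no net growth.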

Tests used:
Experiment in all cases: inhibition of tumour cell growth, NCI panel, 48 h
[1] = test system: A549 NSCLC
[2] = test system: IGROV1 ovarian
[3] = test system: HT29 colon
[4] = test system: SNB-19 CNS
[5] = test system: SF-539 CNS
[6] = test system: SK-OV-3 ovarian
[7] = test system: MDA-MB-231 breast
[8] = test system: M14 melanoma
[9] = test system: TK-10 renal
[10] = test system: SK-MEL-28 melanoma
[11] = test system: OVCAR-3 ovarian
[12] = test system: 786-0 renal
[13] = test system: HCT-15 colon
[14] = test system: A498 renal
[15] = test system: NCI-H460 lung
[16] = test system: UACC-62 melanoma
[17] = test system: T-47D breast
[18] = test system: MCF7 breast
[19] = test system: SF-295 CNS
[20] = test system: U251 CNS
[21] = test system: ACHN renal
[22] = test system: HOP-62 NSCLC
[23] = test system: OVCAR-4 ovarian
[24] = test system: MOLT-4 leukemia
[25] = test system: NCI-H522 lung
[26] = test system: NCI-H23 lung
[27] = test system: NCI-H226 lung
[28] = test system: SF-268 CNS
[29] = test system: UACC-257 melanoma
[30] = test system: OVCAR-5 ovarian
[31] = test system: HS 578T breast
[32] = test system: SNB-75 CNS
[33] = test system: SK-MEL-2 melanoma
[34] = test system: MDA-N
[35] = test system: COLO 205 colon
[36] = test system: RXF 393 renal
[37] = test system: EKVX NSCLC
[38] = test system: SK-MEL-5 melanoma
[39] = test system: HL-60(TB) leukemia
[40] = test system: CAKI-1 renal
[41] = test system: HOP-92 NSCLC
[42] = test system: DU-145 prostate
[43] = test system: HCT-116 colon
[44] = test system: SR leukemia
[45] = test system: UO-31 renal
[46] = test system: KM12 colon
[47] = test system: HCC-2998 colon
[48] = test system: MDA-MB-435
[49] = test system: SN12C renal
[50] = test system: K-562 leukemia
[51] = test system: PC-3 prostate
[52] = test system: OVCAR-8 ovarian
[53] = test system: LOX IMVI melanoma
[54] = test system: CCRF-CEM leukemia
[55] = test system: MALME-3M melanoma
[56] = test system: RPMI-8226 leukemia
[57] = test system: SW-620 colon
[58] = test system: BT-549 breast
[59] = test system: NCI/ADR-RES ovarian

**Q.** What does the source list for CC(C)(C)NC(NC(C)(C)C)=C(/C=C(/Cl)[N+](=O)[O-])[N+](=O)[O-]?
**A.** TGI [1]: 95.3 µM; TGI [2]: > 100 µM; TGI [3]: > 100 µM; TGI [4]: > 100 µM; TGI [5]: > 100 µM; TGI [6]: > 100 µM; TGI [7]: > 100 µM; TGI [8]: 92.5 µM; TGI [9]: > 100 µM; TGI [10]: > 100 µM; TGI [11]: 49.7 µM; TGI [12]: > 100 µM; TGI [13]: > 100 µM; TGI [14]: > 100 µM; TGI [15]: > 100 µM; TGI [16]: > 100 µM; TGI [17]: > 100 µM; TGI [18]: > 100 µM; TGI [19]: > 100 µM; TGI [20]: > 100 µM; TGI [21]: > 100 µM; TGI [22]: > 100 µM; TGI [23]: > 100 µM; TGI [24]: > 100 µM; TGI [25]: > 100 µM; TGI [26]: > 100 µM; TGI [27]: > 100 µM; TGI [28]: > 100 µM; TGI [29]: > 100 µM; TGI [30]: > 100 µM; TGI [31]: > 100 µM; TGI [32]: 87.2 µM; TGI [33]: > 100 µM; TGI [34]: 59.5 µM; TGI [35]: 60.3 µM; TGI [36]: > 100 µM; TGI [37]: > 100 µM; TGI [38]: > 100 µM; TGI [39]: 53.5 µM; TGI [40]: > 100 µM; TGI [41]: > 100 µM; TGI [42]: > 100 µM; TGI [43]: > 100 µM; TGI [44]: > 100 µM; TGI [45]: > 100 µM; TGI [46]: > 100 µM; TGI [47]: > 100 µM; TGI [48]: 38.3 µM; TGI [49]: > 100 µM; TGI [50]: > 100 µM; TGI [51]: > 100 µM; TGI [52]: > 100 µM; TGI [53]: > 100 µM; TGI [54]: > 100 µM; TGI [55]: 24.4 µM; TGI [56]: > 100 µM

**Q.** For Cc1cc(C)nc(NC(=O)c2ccc(Br)s2)c1, which TGI [1] is on record?
**A.** > 100 µM

**Q.** And the TGI [2]?
**A.** > 100 µM

**Q.** What about the TGI [3] of the same compound?
**A.** > 100 µM

**Q.** What about the TGI [57] of the same compound?
**A.** > 100 µM

**Q.** What about the TGI [4] of the same compound?
**A.** > 100 µM

**Q.** And the TGI [5]?
**A.** > 100 µM

**Q.** And the TGI [6]?
**A.** > 100 µM

**Q.** What about the TGI [7] of the same compound?
**A.** 81.6 µM

**Q.** And the TGI [8]?
**A.** 79.5 µM

**Q.** And the TGI [9]?
**A.** > 100 µM

**Q.** What about the TGI [58] of the same compound?
**A.** > 100 µM

**Q.** And the TGI [10]?
**A.** > 100 µM

**Q.** What about the TGI [11] of the same compound?
**A.** > 100 µM

**Q.** And the TGI [12]?
**A.** > 100 µM

**Q.** What about the TGI [13] of the same compound?
**A.** > 100 µM

**Q.** What about the TGI [14] of the same compound?
**A.** > 100 µM

**Q.** And the TGI [15]?
**A.** > 100 µM

**Q.** And the TGI [16]?
**A.** > 100 µM

**Q.** What about the TGI [17] of the same compound?
**A.** > 100 µM

**Q.** And the TGI [18]?
**A.** > 100 µM

**Q.** What about the TGI [19] of the same compound?
**A.** > 100 µM

**Q.** And the TGI [20]?
**A.** > 100 µM

**Q.** What about the TGI [21] of the same compound?
**A.** > 100 µM

**Q.** What about the TGI [22] of the same compound?
**A.** > 100 µM

**Q.** And the TGI [23]?
**A.** > 100 µM

**Q.** And the TGI [24]?
**A.** > 100 µM

**Q.** What about the TGI [25] of the same compound?
**A.** > 100 µM

**Q.** What about the TGI [26] of the same compound?
**A.** > 100 µM

**Q.** What about the TGI [27] of the same compound?
**A.** > 100 µM

**Q.** And the TGI [28]?
**A.** > 100 µM

**Q.** What about the TGI [29] of the same compound?
**A.** > 100 µM

**Q.** And the TGI [30]?
**A.** 62.4 µM

**Q.** And the TGI [32]?
**A.** > 100 µM

**Q.** And the TGI [33]?
**A.** > 100 µM

**Q.** What about the TGI [34] of the same compound?
**A.** > 100 µM

**Q.** What about the TGI [35] of the same compound?
**A.** 23.5 µM

**Q.** And the TGI [36]?
**A.** > 100 µM

**Q.** What about the TGI [37] of the same compound?
**A.** > 100 µM

**Q.** And the TGI [38]?
**A.** 17.6 µM

**Q.** And the TGI [40]?
**A.** > 100 µM

**Q.** What about the TGI [41] of the same compound?
**A.** > 100 µM

**Q.** What about the TGI [59] of the same compound?
**A.** > 100 µM

**Q.** What about the TGI [42] of the same compound?
**A.** > 100 µM

**Q.** And the TGI [43]?
**A.** > 100 µM

**Q.** And the TGI [44]?
**A.** > 100 µM

**Q.** What about the TGI [45] of the same compound?
**A.** > 100 µM

**Q.** And the TGI [46]?
**A.** > 100 µM

**Q.** What about the TGI [47] of the same compound?
**A.** > 100 µM

**Q.** And the TGI [48]?
**A.** > 100 µM

**Q.** What about the TGI [49] of the same compound?
**A.** > 100 µM

**Q.** What about the TGI [50] of the same compound?
**A.** > 100 µM

**Q.** What about the TGI [51] of the same compound?
**A.** > 100 µM

**Q.** And the TGI [52]?
**A.** > 100 µM

**Q.** What about the TGI [53] of the same compound?
**A.** > 100 µM

**Q.** What about the TGI [54] of the same compound?
**A.** 15.6 µM

**Q.** And the TGI [55]?
**A.** > 100 µM

**Q.** And the TGI [56]?
**A.** 16.6 µM
